Assay results published in patent US20120244120A1, “INHIBITORS OF HEMOPOIETIC CELL KINASE (P59-HCK) AND THEIR USE IN THE TREATMENT OF INFLUENZA INFECTION” (priority 2009, published 2012).
Marks after values point to notes of the source that are not given here.

What was measured:
HCK enzyme = HCK enzyme (Homo sapiens, UniProt P08631); assay: HCK enzyme assay (Z'-LYTE FRET); format: biochemical; settings: 2 hr pre-incubation, ATP 15 μM
[1] = system: influenza (H1N1A/PR/8/34); assay: organism not typed; format: cell-based
c-Src enzyme = c-Src enzyme (Homo sapiens, UniProt P12931); assay: c-Src enzyme assay (Z'-LYTE FRET); format: biochemical; settings: ATP 200 μM
Sequence of c-Src enzyme (P12931 whole entry): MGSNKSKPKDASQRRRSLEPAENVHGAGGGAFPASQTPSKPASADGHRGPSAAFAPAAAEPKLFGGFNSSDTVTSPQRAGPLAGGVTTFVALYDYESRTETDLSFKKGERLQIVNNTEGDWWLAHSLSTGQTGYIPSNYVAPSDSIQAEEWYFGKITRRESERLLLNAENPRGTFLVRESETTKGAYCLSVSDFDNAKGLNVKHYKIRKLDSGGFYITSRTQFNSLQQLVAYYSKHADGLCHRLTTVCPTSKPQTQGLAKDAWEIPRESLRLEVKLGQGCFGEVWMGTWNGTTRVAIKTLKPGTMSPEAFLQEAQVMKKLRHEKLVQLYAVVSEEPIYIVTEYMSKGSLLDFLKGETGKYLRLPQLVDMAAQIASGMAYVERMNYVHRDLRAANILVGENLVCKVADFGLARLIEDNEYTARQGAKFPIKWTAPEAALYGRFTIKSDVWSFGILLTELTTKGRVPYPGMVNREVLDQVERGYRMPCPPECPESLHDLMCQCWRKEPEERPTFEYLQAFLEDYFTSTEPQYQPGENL

p38 MAPKα (MAPK14) = p38 MAPKα (MAPK14) (Homo sapiens, UniProt Q16539); assay: p38α enzyme assay (Z'-LYTE FRET, via MAPKAP-K2 activation); format: biochemical; settings: 2 hr pre-incubation, ATP 10 μM
Sequence of p38 MAPKα (MAPK14) (Q16539 whole entry): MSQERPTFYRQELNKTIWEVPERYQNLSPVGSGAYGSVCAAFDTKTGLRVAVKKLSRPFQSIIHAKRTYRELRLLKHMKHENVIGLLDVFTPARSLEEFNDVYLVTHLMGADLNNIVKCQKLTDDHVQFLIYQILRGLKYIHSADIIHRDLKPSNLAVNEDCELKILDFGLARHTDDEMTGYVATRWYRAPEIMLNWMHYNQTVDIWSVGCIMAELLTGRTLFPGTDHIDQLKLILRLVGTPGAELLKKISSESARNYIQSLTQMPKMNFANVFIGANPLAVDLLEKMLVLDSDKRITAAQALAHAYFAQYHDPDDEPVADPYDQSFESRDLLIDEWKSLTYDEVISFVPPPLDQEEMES

MDCK cells = assay: MTT assay (MDCK cells); format: cell-based, canine; settings: final concentration of 10 μg/mL
Procedure: The cells were then washed with 10% FCS DMEM, and incubated in 10% FCS DMEM containing 0.25 mg/mL MTT for 2 hr. The media were then removed, 200 μL of DMSO added to each well and the plates were shaken lightly for 1 hr prior to reading the absorbance at 550 nm.

[2] = system: influenza (H3N1 Memphis 71); settings: mouse, in vivo
[3] = MDCK; read-out: IC50 (nM) Influenza-Induced CPE
[4] = Influenza A virus; MDCK cells, H1N1 A/PR/8/34, MOI 0.1; non-linear regression; read-out: IC50 (nM) Influenza-Induced CPE
[5] = Influenza A virus, MDCK, read-out: IC50 (nM) Influenza-Induced CPE

Sequence of HCK enzyme (P08631 22-526): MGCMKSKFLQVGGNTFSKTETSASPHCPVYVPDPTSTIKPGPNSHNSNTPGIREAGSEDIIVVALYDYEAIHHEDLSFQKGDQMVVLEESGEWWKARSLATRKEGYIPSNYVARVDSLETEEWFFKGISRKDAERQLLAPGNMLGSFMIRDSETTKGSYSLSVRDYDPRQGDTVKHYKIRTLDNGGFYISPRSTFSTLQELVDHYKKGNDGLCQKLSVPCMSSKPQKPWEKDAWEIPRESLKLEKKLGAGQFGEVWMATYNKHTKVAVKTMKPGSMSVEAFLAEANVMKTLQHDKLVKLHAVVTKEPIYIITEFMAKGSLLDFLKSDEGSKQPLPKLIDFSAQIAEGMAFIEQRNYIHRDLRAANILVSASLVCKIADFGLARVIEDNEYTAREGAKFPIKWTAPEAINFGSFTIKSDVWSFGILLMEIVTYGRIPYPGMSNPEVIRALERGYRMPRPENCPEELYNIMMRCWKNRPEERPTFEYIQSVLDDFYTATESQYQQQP

SMILES | IC50 (HCK enzyme) [nM] | IC50 (c-Src enzyme) [nM] | IC50 (p38 MAPKα (MAPK14)) [nM] | IC50 [1, 4] [nM] | other results
Cc1ccc(-n2nc(C(C)(C)C)cc2NC(=O)Nc2ccc(OCc3ccnc(NC(=O)CS(=O)(=O)CCN4CCOCC4)c3)c3ccccc23)cc1 [Example 32, N-(4-((4-(3-(3-tert-Butyl-1-p-tolyl-1H-pyrazol-5-yl)ureido)naphthalen-1-yloxy)methyl)pyridin-2-yl)-2-(2-morpholinoethylsulfonyl)acetamide] | 183 | 111 | 1 |  | IC50 [1, 3]: > 0.04 µg/mL
CNC(=O)Nc1cc(COc2ccc(NC(=O)Nc3cc(C(C)(C)C)nn3-c3ccc(C)cc3)c3ccccc23)ccn1 [Example 2, Methyl 4-((4-(3-(3-tert-butyl-1-p-tolyl-1H-pyrazol-5-yl)ureido)naphthalen-1-yloxy)methyl)pyridin-2-ylurea] | 17 | 45 | 2.8 | 11 | 
Cc1ccc(-n2nc(C(C)(C)C)cc2NC(=O)Nc2ccc(OCCc3ccnc(NC(N)=O)c3)c3ccccc23)cc1 [Example 40, 4-(2-(4-(3-(3-tert-Butyl-1-p-tolyl-1H-pyrazol-5-yl)ureido)naphthalen-1-yloxy)ethyl)-3-(pyridin-2-yl)urea] | 276 | > 17300 |  |  | IC50 [1, 5]: 97 nM
CNC(=O)Nc1cnccc1COc1ccc(NC(=O)Nc2cc(C(C)(C)C)nn2-c2ccc(C)cc2)c2ccccc12 [Example 34, 1-(4-((3-Methylureidopyridin-4-yl)methoxy)naphthalen-1-yl)-3-(3-tert-butyl-1-p-tolyl-1H-pyrazol-5-yl)urea] | 742 | > 17300 |  |  | IC50 [1, 3]: > 0.2 µg/mL
Cc1ccc(-n2nc(C(C)(C)C)cc2NC(=O)Nc2ccc(OCc3ccnc(NC(=O)CCCN(C)C)c3)c3ccccc23)cc1 [Example 16, N-(4-((4-(3-(3-tert-Butyl-1-p-tolyl-1H-pyrazol-5-yl)ureido)naphthalen-1-yloxy)methyl)pyridin-2-yl)-4-(dimethylamino)butanamide] | 20 | 28 | 10.3 | 166 | 
COCC(=O)Nc1cc(COc2ccc(NC(=O)Nc3cc(C(C)(C)C)nn3-c3ccc(CO)cc3)c3ccccc23)ccn1 [Example 49, N-(4-((4-(3-(3-tert-Butyl-1-(4-(hydroxymethyl)phenyl)-1H-pyrazol-5-yl)ureido)naphthalen-1-yloxy)methyl)pyridin-2-yl)-2-methoxyacetamide] | 24 | 155 | 5 | 32 | 
Cc1ccc(-n2nc(C(C)(C)C)cc2NC(=O)Nc2ccc(OCc3ccnc(NC(=O)C[S+](C)[O-])c3)c3ccccc23)cc1 (stereo not shown) [Example 20, N-(4-((4-(3-(3-tert-Butyl-1-p-tolyl-1H-pyrazol-5-yl)ureido)naphthalen-1-yloxy)methyl)pyridin-2-yl)-2-(methylsulfinyl)acetamide] | 176 | 161 |  |  | IC50 [1, 5]: 486 nM
COCCOCC(=O)Nc1cnccc1COc1ccc(NC(=O)Nc2cc(C(C)(C)C)nn2-c2ccc(C)cc2)c2ccccc12 [Example 36, N-(4-((4-(3-(3-tert-Butyl-1-p-tolyl-1H-pyrazol-5-yl)ureido)naphthalen-1-yloxy)methyl)pyridin-3-yl)-2-(2-methoxyethoxy)acetamide] | > 1570 | 9330 |  |  | IC50 ([1]; MDCK, read-out: IC50 (nM) Influenza-Induced CPE): > 0.2 µg/mL
COCCNC(=O)CNC(=O)Nc1cc(COc2ccc(NC(=O)Nc3cc(C(C)(C)C)nn3-c3ccc(C)cc3)c3ccccc23)ccn1 [Example 15, 2-(3-(4-((4-(3-(3-tert-Butyl-1-p-tolyl-1H-pyrazol-5-yl)ureido)naphthalen-1-yloxy)methyl)pyridin-2-yl)ureido)-N-(2-methoxyethyl)acetamide] | 65 | 28 |  |  | IC50 [1, 3]: > 0.2 µg/mL; MTT assay 4 hr (MDCK cells; 4 hr): −ve (<30% = −ve); MTT assay 24 hr (MDCK cells; 24 hr): −ve (<30% = −ve)
COCC(=O)Nc1cc(COc2ccc(NC(=O)Nc3cc(C(C)(C)C)nn3-c3ccc(C)cc3)c3ccccc23)ccn1 [Example 1, N-(4-((4-(3-(3-tert-Butyl-1-p-tolyl-1H-pyrazol-5-yl)ureido)naphthalen-1-yloxy)methyl)pyridin-2-yl)-2-methoxyacetamide] |  |  |  |  | Lung viral load [2]: 8.1 ± 1.9 pfu/g lung tissue (×10^6); decrease in viral load versus vehicle controls [2]: approximately 80%; IC50 [1, 5]: 6 nM
Cc1ccc(-n2nc(C(C)(C)C)cc2NC(=O)Nc2ccc(OCc3ccnc(NC(=O)CCS(C)(=O)=O)c3)c3ccccc23)cc1 [Example 17, N-(4-((4-(3-(3-tert-Butyl-1-p-tolyl-1H-pyrazol-5-yl)ureido)naphthalen-1-yloxy)methyl)pyridin-2-yl)-3-(methylsulfonyl)propanamide] | 60 | 149 | 2.7 | 64 | 
